# Measured values reported in PMC2908543, “Uropathogenic Escherichia coli Modulates Immune Responses and Its Curli Fimbriae Interact with the Antimicrobial Peptide LL-37” (PLoS Pathogens, 2010).
# Residues, ends and D or L forms follow the SMILES beside them.
# Key:
# [1] = tested on: E. coli strain No. 12 and isogenic mutants; type: cell-based, Escherichia coli; conditions: bacteria pre-grown planktonically, curli expression suppressed (data not shown)
# Procedure: For further investigation, E. coli isolate No. 12 from a child with pyelonephritis was chosen. This was a typical isolate expressing both curli and cellulose as well as type 1 fimbriae and yielding an approximately median level of biofilm as measured on microtiter plates. One-step knockout of bcsA and csgBA was carried out according to the protocol of Datsenko and Wanner with modifications, [50]. The following mutants were constructed using oligos listed in Table 1; WE1 bcsA::Cm, deficient in cellulose production; WE11 csgBA::Cm, deficient in curli production; and WE16 csgBA bscA::Cm, deficient in both cellulose and curli production. Expression of curli and cellulose in strain No. 12 was confirmed by these knockouts. Production of type 1 fimbriae under the culture conditions used for experiments was confirmed by yeast agglutination (see below).
# The susceptibility of wild-type and mutant E. coli strains to synthetic LL-37 and mCRAMP (Innovagen AB, Lund, Sweden) was determined using a broth microdilution method. Briefly, bacteria were grown overnight at 37°C on LB plates with or without salt, inhibiting or promoting the formation of biofilm, respectively. Then, bacteria were suspended in PBS and diluted in LB broth without salt in a concentration of 10^5 CFU/ml. The bacterial concentration was verified by viable count after serial dilutions in PBS. Bacteria (90 µl suspension) were grown in 96-well plates in the presence of 10 µl aqueous solution of synthetic LL-37 or mCRAMP in final concentrations ranging from 0.6 µM to 20 µM in 2-fold dilutions. After 20 h, bacterial viability was measured colorimetrically by reduction of Alamar blue (BioSource International, Camarillo, CA, USA) for 1 h at 37°C [57]. The IC50 was determined as the peptide concentration that gave 50% reduction of the absorbance at 570 nm relative to bacteria grown without peptide.
# toll-like receptor 2 = conditions: cytokine induction by Salmonella; ref [31]; cited from earlier work
# Description: In the pathogenesis of infection, curli fimbriae have previously been implicated in the attachment and invasion of host cells, interaction with host proteins and activation of the immune system, [29], [30].
# CsgA polymerization = molecular target: T1, CsgA polymerization (Escherichia coli, UniProt P28307); test: CsgA polymerization, Thioflavin T assay, Tecan plate reader; type: biochemical; conditions: 20 µM ThT, 37°C
# T1 construct: made in house; host or cells: E. coli LSR12 (C600::csg), co-expressed with CsgG
# T1 sequence (P28307 21-151): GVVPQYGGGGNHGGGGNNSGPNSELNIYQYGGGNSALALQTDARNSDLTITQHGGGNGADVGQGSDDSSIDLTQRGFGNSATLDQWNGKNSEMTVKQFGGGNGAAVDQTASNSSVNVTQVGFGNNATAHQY
# Procedure: (§1) CsgA-His6 and CsgG, a lipoprotein that is required for CsgA secretion, were overexpressed in LSR12 (C600::csg). The purification procedure of recombinant CsgA-His6 was performed as previously described with some modifications. The filtrate was incubated with nickel-nitrilotriacetic acid (Ni-NTA) agarose (Invitrogen) for 1 h at 4°C with shaking, centrifuged at 200×g for 5 min and transferred to a polyprep chromatography column (Bio-Rad, Hercules, CA, USA). To confirm protein identity of CsgA-His6, the isolated protein was prepared and subjected to SDS-PAGE as described below, and thereafter the protein was transferred from the gel to a polyvinylidene fluoride (PVDF) membrane (Invitrogen) at 160 mA for 60 min. The band of 15 kDa, corresponding to the molecular weight of CsgA-His6, was excised from the membrane stained with Coomassie Blue and analysed with N-terminal sequence analysis as has been described. Since it has previously been shown that CsgA-His6 has the same polymerizing properties as wild-type CsgA [59], we refer to CsgA-His6 as CsgA.
# Purified recombinant monomeric CsgA (10 µM) with or without different concentrations of the peptides LL-37, sLL-37 or VIP was mixed with 20 µM of the fiber-specific fluorescent probe ThT (Sigma-Aldrich). Fluorescence was measured with a Tecan infinite M200 reader (Tecan Nordic AB, Täby, Sweden). The excitation and emission wavelength was 430 and 490 nm, respectively. Measurements were conducted at 37°C every 10 min after shaking the sample for five seconds. Background fluorescence of the peptides themselves was subtracted.
# CsgA = test: CD spectroscopy of CsgA; design: species or system Escherichia coli; conditions: 40 µM CsgA alone, 50 mM KPi, 0.02% NaN3, pH 7.2, 60 h at 37°C
# Procedure: Samples containing 40 µM CsgA in 50 mM potassium phosphate buffer (KPi) and 0.02% NaN3, pH 7.2, with and without 10 µM LL-37 were incubated for 60 h at 37°C. The samples were then assayed with a Jasco J-810 spectropolarimeter from 190 to 250 nm in a quartz cell with a 1-mm path length at 20°C. The spectrum of buffer alone and LL-37 in buffer was subtracted from the spectra for CsgA alone and for CsgA together with LL-37, respectively.
# monomeric CsgA = molecular target: T2, monomeric CsgA (Escherichia coli, UniProt P28307); test: Surface plasmon resonance, monomeric CsgA; conditions: monomeric CsgA immobilized (2000 response units), 0.1 µM peptide, 20 µl/min for 3 min, HBS-EP, Biacore 3000; binding constants not determinable
# T2 construct: made in house; host or cells: E. coli LSR12 (C600::csg), co-expressed with CsgG
# T2 sequence (P28307 21-151): as above
# Procedure: (§2) Binding analysis of LL-37 to both monomeric and polymeric CsgA was performed with surface plasmon resonance (Biacore 3000 instrument; Biacore AB, Uppsala, Sweden). Both monomeric and polymeric CsgA was immobilized on a CM5 sensor chip (Biacore AB) surface by amine coupling. The chip surface was normalized in 70% glycerol and lanes on the chip were activated with injection of 35 µL 0.05 M N-hydroxysuccinimide (NHS)/0.2 M N-ethyl-N′-[3-dimethylamino) propyl]carbodiimide (EDC). Polymeric or monomeric CsgA (1 µM in 10 mM sodium acetate, pH 4.5) was then immobilized on the chip to 7000 response units and 2000 response units, respectively. After immobilization, the lanes were subjected to 60 µL ethanolamine (1 M, pH 8.5) to deactivate remaining activated carboxylic groups. One lane, activated and deactivated, was used as negative control (without addition of CsgA). Standard Biacore HBS-EP (Biacore AB) was utilized as running buffer, and 0.1 µM LL-37, sLL-37 or VIP were injected at 20 µl/min for 3 min. The surface was regenerated after each cycle with 100 mM HCl.
# [2] = tested on: curli-mediated biofilm formation by E. coli; test: Effect on formation of biofilm, crystal violet microtiter plate; type: cell-based, Escherichia coli
# Procedure: To measure the ability of the bacteria to adhere and to form biofilm a crystal violet assay in polystyrene microtiter plates (Costar, Corning, NY, USA) was performed. Bacteria were grown in Luria-Bertani (LB) broth without salt for 24 h at 37°C without shaking. Biofilm was then stained with crystal violet (3%). The dye was solubilized with ethanol (95%) and the optical density was measured at 570 nm.
# Plates were filled with 90 µL bacterial culture of planktonic cells and 10 µL of aqueous solution of LL-37 in the same concentrations as in the susceptibility assay. As control peptides, sLL-37 (Innovagen AB) and VIP [27] with similar structural properties as LL-37 were utilized. The plates were incubated without shaking at 37°C for 20 h. After incubation, the amount of biofilm formed was determined as described above.
# CsgA fiber formation = test: CsgA fiber formation, Thioflavin T, confocal microscopy; type: biochemical, Escherichia coli; conditions: CsgA with equimolar peptide (1∶1), 20 µM ThT, 20 h at 37°C; CsgA alone = 1 arbitrary unit; corrected for peptide fluorescence; two experiments
# Procedure: as §1
# Recombinant monomeric CsgA was mixed with equimolar LL-37, sLL-37 or VIP and 20 µM ThT, and incubated over night at 37°C, washed twice, and suspended in 10 mM Kpi, pH 7.2 before mounting in ProLong Gold antifade mounting medium (Invitrogen). Images were acquired on a Leica TCS SP5 confocal microscope using a 20× objective. Fluorescence intensity was quantified using ImageJ software. The difference in fluorescence intensity of CsgA with and without peptides was calculated and corrected for the contribution of fluorescence from the peptides themselves.
# polymeric CsgA = molecular target: T3, polymeric CsgA (Escherichia coli, UniProt P28307); test: Surface plasmon resonance, polymeric CsgA; conditions: polymeric CsgA immobilized (7000 response units), 0.1 µM peptide, 20 µl/min for 3 min, HBS-EP, Biacore 3000; binding constants not determinable
# T3 construct: made in house; host or cells: E. coli LSR12 (C600::csg), co-expressed with CsgG
# T3 sequence (P28307 21-151): as above
# Procedure: as §2
compound,measurement,setting,value
CC[C@H](C)[C@H](NC(=O)[C@H](CCCCN)NC(=O)[C@H](CCC(=O)O)NC(=O)CNC(=O)CNC(=O)[C@H](CCCCN)NC(=O)[C@H](CCCNC(=N)N)NC(=O)[C@H](CC(C)C)NC(=O)[C@H](CC(C)C)NC(=O)CN)C(=O)NCC(=O)N[C@@H](CCC(=O)O)C(=O)N[C@@H](CCCCN)C(=O)N[C@@H](CC(C)C)C(=O)N[C@@H](CCCCN)C(=O)N[C@@H](CCCCN)C(=O)N[C@H](C(=O)NCC(=O)N[C@@H](CCC(N)=O)C(=O)N[C@@H](CCCCN)C(=O)N[C@H](C(=O)N[C@@H](CCCCN)C(=O)N[C@@H](CC(N)=O)C(=O)N[C@@H](Cc1ccccc1)C(=O)N[C@@H](Cc1ccccc1)C(=O)N[C@@H](CCC(N)=O)C(=O)N[C@@H](CCCCN)C(=O)N[C@@H](CC(C)C)C(=O)N[C@H](C(=O)N1CCC[C@H]1C(=O)N[C@@H](CCC(N)=O)C(=O)N1CCC[C@H]1C(=O)N[C@@H](CCC(=O)O)C(=O)N[C@@H](CCC(N)=O)C(=O)O)C(C)C)[C@@H](C)CC)[C@@H](C)CC [mCRAMP] (H-GLLRKGGEKIGEKLKKIGQKIKNFFQKLVPQPEQ-OH; N-terminus and C-terminus assumed),difference in resistance between the strains,[1],no significant difference in the resistance
"CsgA: major curli subunit, recombinant CsgA-His6",binding to toll-like receptor 2,toll-like receptor 2,binding of CsgA to toll-like receptor 2
same,time to stationary phase of CsgA polymerization,CsgA polymerization; 10 µM CsgA alone,approximately 300 min
same,solubility of polymeric CsgA (from CD signal amplitude),CsgA,decreased solubility due to polymerization
vasoactive intestinal peptide [VIP],binding / association and dissociation by SPR,monomeric CsgA,"faster dissociation rates than LL-37, indicating a weaker binding to CsgA"
same,reduction of biofilm formation,"[2]; 2.5 µM peptide, cellulose-negative, curli-expressing E. coli strain, 37°C, 20 h, two experiments in triplicates",10%
same,biofilm reduction compared with the effect of LL-37,"[2]; 2.5 µM, P = 0.001, t-test",significantly lower reduction than the effect of LL-37
same,fluorescence relative to CsgA alone,CsgA fiber formation,approximately 0.2 arbitrary units
same,binding / association and dissociation by SPR,polymeric CsgA,"faster dissociation rates than LL-37, indicating a weaker binding to CsgA"
same,inhibition of CsgA polymerization (ThT fluorescence),CsgA polymerization; 10 µM CsgA with different concentrations of peptide,less pronounced effect on CsgA polymerization than LL-37
